How the values were obtained:
[1] = target: Tyrosine-protein kinase Fes/Fps (Homo sapiens) (UniProt P07332); conditions: Compound concentration 1000.0 nM
[2] = target: Tyrosine-protein kinase FRK (Homo sapiens) (UniProt P42685); conditions: Compound concentration 1000.0 nM
[3] = target: Serine/threonine-protein kinase ICK (Homo sapiens) (UniProt Q9UPZ9); conditions: Compound concentration 1000.0 nM
[4] = target: T1, Serine/threonine-protein kinase Nek1 (Homo sapiens) (UniProt Q96PY6); conditions: Compound concentration 1000.0 nM
T1 sequence (whole entry): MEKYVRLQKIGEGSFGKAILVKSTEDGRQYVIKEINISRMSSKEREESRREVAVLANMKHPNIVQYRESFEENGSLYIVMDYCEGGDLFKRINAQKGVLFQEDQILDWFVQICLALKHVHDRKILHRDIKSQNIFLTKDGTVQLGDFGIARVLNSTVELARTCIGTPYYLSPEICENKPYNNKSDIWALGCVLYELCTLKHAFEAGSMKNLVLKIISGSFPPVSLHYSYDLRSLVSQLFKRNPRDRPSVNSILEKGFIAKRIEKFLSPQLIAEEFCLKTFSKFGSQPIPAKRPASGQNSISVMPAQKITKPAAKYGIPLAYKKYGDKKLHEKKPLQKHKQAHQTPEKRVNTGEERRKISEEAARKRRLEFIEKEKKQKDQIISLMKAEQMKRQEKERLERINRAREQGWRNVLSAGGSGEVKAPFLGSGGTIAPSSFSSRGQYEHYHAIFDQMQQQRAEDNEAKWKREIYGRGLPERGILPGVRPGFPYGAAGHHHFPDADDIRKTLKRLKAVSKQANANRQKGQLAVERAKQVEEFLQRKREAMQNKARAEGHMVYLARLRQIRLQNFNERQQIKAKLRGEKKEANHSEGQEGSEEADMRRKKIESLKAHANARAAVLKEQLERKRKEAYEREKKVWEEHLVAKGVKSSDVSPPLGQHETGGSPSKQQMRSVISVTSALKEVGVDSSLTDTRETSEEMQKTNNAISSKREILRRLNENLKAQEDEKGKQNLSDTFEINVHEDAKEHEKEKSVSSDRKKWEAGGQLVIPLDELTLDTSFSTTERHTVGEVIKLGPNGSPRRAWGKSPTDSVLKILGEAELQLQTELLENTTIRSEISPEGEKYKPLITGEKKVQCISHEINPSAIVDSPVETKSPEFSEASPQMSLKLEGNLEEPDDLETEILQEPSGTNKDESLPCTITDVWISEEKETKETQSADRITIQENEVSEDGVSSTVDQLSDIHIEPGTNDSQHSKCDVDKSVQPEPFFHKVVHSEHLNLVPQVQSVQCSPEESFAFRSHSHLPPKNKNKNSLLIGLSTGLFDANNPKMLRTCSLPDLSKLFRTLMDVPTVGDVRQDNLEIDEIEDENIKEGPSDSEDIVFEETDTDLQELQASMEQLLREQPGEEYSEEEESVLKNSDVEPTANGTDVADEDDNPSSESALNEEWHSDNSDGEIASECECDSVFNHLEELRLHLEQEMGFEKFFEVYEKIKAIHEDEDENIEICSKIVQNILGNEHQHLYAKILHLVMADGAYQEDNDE

[5] = target: Serine/threonine-protein kinase Nek3 (Homo sapiens) (UniProt P51956); conditions: Compound concentration 1000.0 nM
[6] = target: Serine/threonine-protein kinase Nek6 (Homo sapiens) (UniProt Q9HC98); conditions: Compound concentration 1000.0 nM
[7] = target: Interferon-induced, double-stranded RNA-activated protein kinase (Homo sapiens) (UniProt P19525); conditions: Compound concentration 1000.0 nM
[8] = target: T2, cAMP-dependent protein kinase catalytic subunit PRKX (Homo sapiens) (UniProt P51817); conditions: Compound concentration 1000.0 nM
T2 sequence (whole entry): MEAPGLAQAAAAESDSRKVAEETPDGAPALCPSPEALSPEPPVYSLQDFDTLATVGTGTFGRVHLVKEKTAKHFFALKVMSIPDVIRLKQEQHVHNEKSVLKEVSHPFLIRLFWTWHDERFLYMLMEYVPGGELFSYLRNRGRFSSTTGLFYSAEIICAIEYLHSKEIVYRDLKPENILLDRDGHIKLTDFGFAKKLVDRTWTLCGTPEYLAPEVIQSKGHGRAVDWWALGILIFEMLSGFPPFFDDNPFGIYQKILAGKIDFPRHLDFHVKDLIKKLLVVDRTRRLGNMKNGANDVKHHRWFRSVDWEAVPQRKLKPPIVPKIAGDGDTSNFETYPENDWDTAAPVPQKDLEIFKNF

[9] = target: Protein-tyrosine kinase 2-beta (Homo sapiens) (UniProt Q14289); conditions: Compound concentration 1000.0 nM
[10] = target: D(1A) dopamine receptor (Homo sapiens) (UniProt P21728); conditions: Compound concentration 10.0 uM
[11] = target: T3, D(4) dopamine receptor (Homo sapiens) (UniProt P21917); conditions: Compound concentration 10.0 uM
T3 sequence (whole entry): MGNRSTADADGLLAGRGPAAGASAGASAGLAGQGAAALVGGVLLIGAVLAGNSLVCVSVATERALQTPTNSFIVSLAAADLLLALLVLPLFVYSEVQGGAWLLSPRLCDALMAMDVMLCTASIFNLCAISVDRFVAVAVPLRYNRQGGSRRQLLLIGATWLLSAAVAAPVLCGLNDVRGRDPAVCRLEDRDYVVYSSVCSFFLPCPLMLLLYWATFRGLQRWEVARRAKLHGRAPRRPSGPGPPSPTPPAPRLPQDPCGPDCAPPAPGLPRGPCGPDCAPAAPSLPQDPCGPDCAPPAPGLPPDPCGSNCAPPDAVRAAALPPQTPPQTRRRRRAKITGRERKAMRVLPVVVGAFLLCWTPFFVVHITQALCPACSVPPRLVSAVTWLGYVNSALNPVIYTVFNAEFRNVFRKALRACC

[12] = target: Delta-type opioid receptor (Homo sapiens) (UniProt P41143); conditions: Compound concentration 10.0 uM
[13] = target: Beta-2 adrenergic receptor (Homo sapiens) (UniProt P07550); conditions: Compound concentration 10.0 uM
Sequence of Beta-2 adrenergic receptor (Homo sapiens) (P07550 whole entry, looked up): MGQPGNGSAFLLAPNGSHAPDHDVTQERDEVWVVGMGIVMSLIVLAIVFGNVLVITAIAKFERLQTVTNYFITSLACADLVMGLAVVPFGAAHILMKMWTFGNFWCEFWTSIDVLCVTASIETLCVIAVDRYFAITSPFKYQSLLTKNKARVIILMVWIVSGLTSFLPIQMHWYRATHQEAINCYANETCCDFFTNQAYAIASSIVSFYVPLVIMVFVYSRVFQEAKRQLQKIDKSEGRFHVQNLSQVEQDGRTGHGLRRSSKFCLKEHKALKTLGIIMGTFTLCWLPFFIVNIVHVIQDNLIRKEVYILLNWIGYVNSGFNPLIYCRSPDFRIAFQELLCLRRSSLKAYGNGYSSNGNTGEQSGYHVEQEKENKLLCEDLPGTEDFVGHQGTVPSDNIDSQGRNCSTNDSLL

Sequence of Serine/threonine-protein kinase Nek6 (Homo sapiens) (Q9HC98 whole entry): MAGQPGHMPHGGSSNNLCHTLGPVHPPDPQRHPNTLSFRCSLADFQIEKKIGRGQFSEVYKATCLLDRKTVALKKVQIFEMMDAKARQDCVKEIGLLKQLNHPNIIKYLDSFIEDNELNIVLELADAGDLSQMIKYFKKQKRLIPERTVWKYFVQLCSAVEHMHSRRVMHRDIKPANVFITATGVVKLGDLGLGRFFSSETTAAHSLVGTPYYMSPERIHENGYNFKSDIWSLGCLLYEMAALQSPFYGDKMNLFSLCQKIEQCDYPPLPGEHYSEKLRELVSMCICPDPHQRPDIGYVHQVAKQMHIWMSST
Sequence of Serine/threonine-protein kinase Nek3 (Homo sapiens) (P51956 whole entry): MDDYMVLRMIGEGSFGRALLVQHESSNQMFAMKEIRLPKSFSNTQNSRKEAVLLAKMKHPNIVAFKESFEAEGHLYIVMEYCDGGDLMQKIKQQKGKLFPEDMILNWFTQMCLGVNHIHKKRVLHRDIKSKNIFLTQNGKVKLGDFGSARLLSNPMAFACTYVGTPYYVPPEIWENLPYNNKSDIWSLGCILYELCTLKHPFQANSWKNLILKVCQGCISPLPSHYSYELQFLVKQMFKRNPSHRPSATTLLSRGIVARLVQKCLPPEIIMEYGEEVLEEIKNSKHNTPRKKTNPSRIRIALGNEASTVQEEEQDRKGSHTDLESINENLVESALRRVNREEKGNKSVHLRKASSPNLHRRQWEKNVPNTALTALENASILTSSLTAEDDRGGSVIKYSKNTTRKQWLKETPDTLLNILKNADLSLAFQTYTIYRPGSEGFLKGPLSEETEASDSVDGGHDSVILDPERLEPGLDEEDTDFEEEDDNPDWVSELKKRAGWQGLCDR
Sequence of Interferon-induced, double-stranded RNA-activated protein kinase (Homo sapiens) (P19525 whole entry): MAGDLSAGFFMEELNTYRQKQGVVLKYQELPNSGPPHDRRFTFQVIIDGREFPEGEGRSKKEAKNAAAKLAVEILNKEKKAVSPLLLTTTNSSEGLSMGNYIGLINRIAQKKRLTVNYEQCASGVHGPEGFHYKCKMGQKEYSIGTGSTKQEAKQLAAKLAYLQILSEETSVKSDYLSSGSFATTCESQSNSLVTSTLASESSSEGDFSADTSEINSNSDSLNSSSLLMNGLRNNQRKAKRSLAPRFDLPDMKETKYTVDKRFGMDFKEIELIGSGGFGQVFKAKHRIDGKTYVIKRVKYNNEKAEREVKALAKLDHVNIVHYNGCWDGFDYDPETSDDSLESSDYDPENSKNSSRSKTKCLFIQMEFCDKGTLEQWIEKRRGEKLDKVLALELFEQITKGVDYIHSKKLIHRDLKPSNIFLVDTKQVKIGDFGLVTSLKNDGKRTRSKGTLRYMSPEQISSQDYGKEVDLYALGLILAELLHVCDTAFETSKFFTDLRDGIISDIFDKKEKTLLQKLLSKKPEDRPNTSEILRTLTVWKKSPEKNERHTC
Sequence of D(1A) dopamine receptor (Homo sapiens) (P21728 whole entry): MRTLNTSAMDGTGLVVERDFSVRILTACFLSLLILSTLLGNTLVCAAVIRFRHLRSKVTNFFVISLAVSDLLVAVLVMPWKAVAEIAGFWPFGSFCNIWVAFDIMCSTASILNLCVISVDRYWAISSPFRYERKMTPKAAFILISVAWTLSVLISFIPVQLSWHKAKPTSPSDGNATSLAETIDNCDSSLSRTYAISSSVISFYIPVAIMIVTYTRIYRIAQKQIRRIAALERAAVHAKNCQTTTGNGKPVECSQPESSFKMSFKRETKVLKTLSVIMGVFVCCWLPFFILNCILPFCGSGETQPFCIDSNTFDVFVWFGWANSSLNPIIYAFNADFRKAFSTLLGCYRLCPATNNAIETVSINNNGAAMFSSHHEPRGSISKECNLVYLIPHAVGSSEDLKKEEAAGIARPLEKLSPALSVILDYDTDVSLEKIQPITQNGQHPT
Sequence of Tyrosine-protein kinase Fes/Fps (Homo sapiens) (P07332 whole entry): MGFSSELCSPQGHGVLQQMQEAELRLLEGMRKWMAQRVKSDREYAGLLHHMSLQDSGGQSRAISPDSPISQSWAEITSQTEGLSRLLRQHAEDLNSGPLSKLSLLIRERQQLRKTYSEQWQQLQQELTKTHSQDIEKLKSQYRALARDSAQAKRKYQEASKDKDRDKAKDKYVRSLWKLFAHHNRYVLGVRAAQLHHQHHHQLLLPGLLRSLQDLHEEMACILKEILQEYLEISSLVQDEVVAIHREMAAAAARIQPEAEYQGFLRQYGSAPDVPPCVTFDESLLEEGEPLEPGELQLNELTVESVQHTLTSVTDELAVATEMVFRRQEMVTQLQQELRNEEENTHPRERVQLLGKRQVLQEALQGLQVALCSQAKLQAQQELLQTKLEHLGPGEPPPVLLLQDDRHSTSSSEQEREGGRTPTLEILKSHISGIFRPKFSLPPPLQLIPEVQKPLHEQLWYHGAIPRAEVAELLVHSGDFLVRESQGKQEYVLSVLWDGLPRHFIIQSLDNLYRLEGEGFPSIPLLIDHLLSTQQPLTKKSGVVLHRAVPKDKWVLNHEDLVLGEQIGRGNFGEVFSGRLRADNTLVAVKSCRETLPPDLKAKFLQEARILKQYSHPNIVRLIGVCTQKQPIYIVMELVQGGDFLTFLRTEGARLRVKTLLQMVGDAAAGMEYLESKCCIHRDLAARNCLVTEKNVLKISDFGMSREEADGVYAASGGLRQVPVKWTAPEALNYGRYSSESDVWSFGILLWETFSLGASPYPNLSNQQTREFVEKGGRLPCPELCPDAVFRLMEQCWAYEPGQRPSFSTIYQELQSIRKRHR
Sequence of Protein-tyrosine kinase 2-beta (Homo sapiens) (Q14289 whole entry, looked up): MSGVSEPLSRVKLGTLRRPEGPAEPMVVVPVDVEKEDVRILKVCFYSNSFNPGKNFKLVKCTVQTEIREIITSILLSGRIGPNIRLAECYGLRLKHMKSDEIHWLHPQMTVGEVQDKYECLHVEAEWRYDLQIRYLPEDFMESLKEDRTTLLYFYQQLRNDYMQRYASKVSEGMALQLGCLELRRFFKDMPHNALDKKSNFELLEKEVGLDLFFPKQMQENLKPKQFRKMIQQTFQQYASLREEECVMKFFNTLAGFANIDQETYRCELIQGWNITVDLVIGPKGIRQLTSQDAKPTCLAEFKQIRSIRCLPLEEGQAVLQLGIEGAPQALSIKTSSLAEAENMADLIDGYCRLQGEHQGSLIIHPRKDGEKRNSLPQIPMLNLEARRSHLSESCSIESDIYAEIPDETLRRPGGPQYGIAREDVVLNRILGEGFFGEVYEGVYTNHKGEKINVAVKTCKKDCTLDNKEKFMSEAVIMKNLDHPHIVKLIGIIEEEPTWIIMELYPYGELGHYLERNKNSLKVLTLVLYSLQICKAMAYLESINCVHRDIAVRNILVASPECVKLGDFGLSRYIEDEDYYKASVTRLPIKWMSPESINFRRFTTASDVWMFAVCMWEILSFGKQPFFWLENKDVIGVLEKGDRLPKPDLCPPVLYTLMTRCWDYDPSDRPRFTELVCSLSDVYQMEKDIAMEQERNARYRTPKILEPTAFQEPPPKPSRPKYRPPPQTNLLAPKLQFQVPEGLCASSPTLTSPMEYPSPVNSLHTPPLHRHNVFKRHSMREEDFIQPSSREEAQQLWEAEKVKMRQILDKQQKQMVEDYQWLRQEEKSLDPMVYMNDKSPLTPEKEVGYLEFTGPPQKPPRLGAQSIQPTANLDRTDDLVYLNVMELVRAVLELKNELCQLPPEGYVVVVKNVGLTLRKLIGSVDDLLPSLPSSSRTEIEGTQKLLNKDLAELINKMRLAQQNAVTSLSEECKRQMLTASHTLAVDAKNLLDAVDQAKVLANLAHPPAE
Sequence of Tyrosine-protein kinase FRK (Homo sapiens) (P42685 whole entry): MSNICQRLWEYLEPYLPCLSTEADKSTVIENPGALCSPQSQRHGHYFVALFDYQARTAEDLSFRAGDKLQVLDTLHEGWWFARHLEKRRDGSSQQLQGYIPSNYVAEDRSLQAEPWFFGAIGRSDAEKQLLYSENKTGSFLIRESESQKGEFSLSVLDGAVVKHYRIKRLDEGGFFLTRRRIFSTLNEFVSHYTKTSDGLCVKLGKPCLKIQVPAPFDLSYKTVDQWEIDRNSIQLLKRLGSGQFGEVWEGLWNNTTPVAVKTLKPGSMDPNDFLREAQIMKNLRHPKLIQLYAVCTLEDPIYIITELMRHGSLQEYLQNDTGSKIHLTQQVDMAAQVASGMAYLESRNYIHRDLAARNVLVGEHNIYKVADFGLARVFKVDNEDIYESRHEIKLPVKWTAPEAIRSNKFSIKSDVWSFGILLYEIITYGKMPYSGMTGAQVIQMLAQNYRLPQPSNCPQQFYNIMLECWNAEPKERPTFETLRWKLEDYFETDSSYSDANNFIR
Sequence of Delta-type opioid receptor (Homo sapiens) (P41143 whole entry): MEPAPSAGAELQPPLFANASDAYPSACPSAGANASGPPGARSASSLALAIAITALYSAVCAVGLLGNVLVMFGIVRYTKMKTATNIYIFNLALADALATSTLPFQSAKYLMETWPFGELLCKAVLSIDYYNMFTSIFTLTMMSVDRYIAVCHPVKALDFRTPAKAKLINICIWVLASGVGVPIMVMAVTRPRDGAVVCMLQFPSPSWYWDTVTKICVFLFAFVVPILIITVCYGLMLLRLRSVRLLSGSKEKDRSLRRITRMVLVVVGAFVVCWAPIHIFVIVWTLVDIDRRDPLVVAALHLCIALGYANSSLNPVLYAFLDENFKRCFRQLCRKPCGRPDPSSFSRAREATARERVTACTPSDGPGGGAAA

CN(C)C(=O)Cn1cc(-c2nc(C3(c4ccc(-c5cnc(N)nc5)cc4)CC3)no2)cn1 [BI 0153]
inactive: residual activity [1] 100% | residual activity [2] 100% | residual activity [3] 76% | residual activity [4] 100% | residual activity [5] 57% | residual activity [6] 81% | residual activity [7] 100% | residual activity [8] 100% | residual activity [9] 90% | inhibition [10] -6.69% | inhibition [11] 1.18% | inhibition [12] -5.53% | inhibition [13] 3.55%

CN(C)C(=O)Cn1cc(-c2nc([C@@](C)(c3ccc(-c4cnc(N)nc4)cc3)C3CC3)no2)cn1 [BI 665915]
inactive: residual activity [1] 100% | residual activity [2] 90% | residual activity [3] 100% | residual activity [4] 100% | residual activity [5] 87% | residual activity [6] 100% | residual activity [7] 100% | residual activity [8] 100% | residual activity [9] 87% | inhibition [10] 4.55% | inhibition [11] 1.48% | inhibition [12] -7.13% | inhibition [13] 0.497%
